This assay deals with BDF1 mice, P388 leukemia ip, median survival T/C. In words: NCI In Vivo Anticancer Drug Screen. Data for tumor model P388 Leukemia (intraperitoneal) in B6D2F1 (BDF1) mice. Conditions: endpoint: median survival time, higher = longer survival. The method in brief:
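Antitumour effect was judged in vivo: survival in drug-treated mice, normalised to that of vehicle-dosed controls, gives the reported T/C.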

Setting [1] is: dose: 100.0 mg/kg/injection, schedule: Q04DX003 (ip), vehicle: saline with Tween-80.
Setting [2] is: dose: 200.0 mg/kg/injection, schedule: Q04DX003 (ip), vehicle: saline with Tween-80.
The mark [3] stands for this setting: dose: 400.0 mg/kg/injection, schedule: Q04DX003 (ip), vehicle: saline with Tween-80.
[4] abbreviates: dose: 100.0 mg/kg/injection, schedule: Q01DX009 (ip), vehicle: saline with Tween-80.
Setting [5] is: dose: 200.0 mg/kg/injection, schedule: Q01DX009 (ip), vehicle: saline with Tween-80.
Setting [6] is: dose: 400.0 mg/kg/injection, schedule: Q01DX009 (ip), vehicle: saline with Tween-80.
The mark [7] stands for this setting: dose: 50.0 mg/kg/injection, schedule: Q01DX009 (ip), vehicle: saline with Tween-80.

Several values for one entry are separate records, joined by “and”; a condition that tells them apart may be missing. Equal entries are not always repeated. Toxic doses and inconclusive results are not listed.

Turning to `COC(=O)C12OCC34C(CC5C(C)=C(O)C(=O)CC5(C)C3C(O)C1O)OC(=O)C(OC(=O)CC(C)C(C)C)C24` (stereo not given), the T/C runs as follows: (dose: 2.0 mg/kg/injection, schedule: Q01DX009 (ip), vehicle: saline + alcohol) 156 % of control; (dose: 4.0 mg/kg/injection, schedule: Q01DX009 (ip), vehicle: saline + alcohol) 176 % of control; (dose: 7.0 micrograms/kg/injection, schedule: Q01DX009 (ip), vehicle: saline + alcohol) 100 % of control; (dose: 15.0 micrograms/kg/injection, schedule: Q01DX009 (ip), vehicle: saline + alcohol) 95 % of control and 119 % of control; (dose: 27.5 micrograms/kg/injection, schedule: Q01DX009 (ip), vehicle: saline) 120 % of control; (dose: 31.0 micrograms/kg/injection, schedule: Q01DX009 (ip), vehicle: saline + alcohol) 107 % of control and 113 % of control. The T/C is 115 % of control and 122 % of control (dose: 62.0 micrograms/kg/injection, schedule: Q01DX009 (ip), vehicle: saline + alcohol); 150 % of control (dose: 440.0 micrograms/kg/injection, schedule: Q01DX009 (ip), vehicle: saline); 123 % of control (dose: 500.0 micrograms/kg/injection, schedule: Q01DX009 (ip), vehicle: saline + alcohol); 163 % of control (dose: 1000.0 micrograms/kg/injection, schedule: Q01DX009 (ip), vehicle: saline + alcohol); 168 % of control (dose: 2000.0 micrograms/kg/injection, schedule: Q01DX009 (ip), vehicle: saline + alcohol); 163 % of control (dose: 4000.0 micrograms/kg/injection, schedule: Q01DX009 (ip), vehicle: saline + alcohol).

`O=c1cc(CCl)[nH]nc1CCl`: the T/C reads like this: (dose: 14.5 mg/kg/injection, schedule: Q04DX003 (ip), vehicle: saline with Tween-80) 166 % of control; (dose: 22.0 mg/kg/injection, schedule: Q04DX003 (ip), vehicle: saline with Tween-80) 159 % of control; (dose: 33.0 mg/kg/injection, schedule: Q04DX003 (ip), vehicle: saline with Tween-80) 151 % of control; (dose: 75.0 mg/kg/injection, schedule: Q04DX003 (ip), vehicle: saline with Tween-80) 98 % of control.

Consider `Cc1cc(N(CCOS(C)(=O)=O)CCOS(C)(=O)=O)ccc1C=O`, for which the T/C was 231 % of control (dose: 12.5 mg/kg/injection, schedule: Q04DX003 (ip), vehicle: saline with Tween-80) and 120 % of control (dose: 25.0 mg/kg/injection, schedule: Q04DX003 (ip), vehicle: saline with Tween-80).

Take `COc1cc2oc(=O)c3c(c2cc1OC)CCN(CCN1CCCCC1)C3`: the T/C (dose: 50.0 mg/kg/injection, schedule: Q04DX002 (ip), vehicle: saline) is 101 % of control; the T/C (dose: 100.0 mg/kg/injection, schedule: Q04DX002 (ip), vehicle: saline) was 100 % of control; the T/C (dose: 200.0 mg/kg/injection, schedule: Q04DX002 (ip), vehicle: saline) is 108 % of control.

As for `C=C(C)c1ccccc1S(=O)(=O)c1ccccc1C(C)(C)O`, the T/C is 105 % of control under setting [1], 110 % of control under setting [2] and 114 % of control under setting [3].

Consider `COc1ccc(/C=C(C(=O)O)/C(=C/c2ccc(OC)c(OC)c2)C(=O)O)cc1OC`, for which the T/C runs as follows: (dose: 100.0 mg/kg/injection, schedule: Q01DX009 (ip), vehicle: Klucel (hydroxypropylcellulose) (HPC)) 100 % of control; (dose: 200.0 mg/kg/injection, schedule: Q01DX009 (ip), vehicle: Klucel (hydroxypropylcellulose) (HPC)) 109 % of control; (dose: 200.0 mg/kg/injection, schedule: Q04DX003 (ip), vehicle: Klucel (hydroxypropylcellulose) (HPC)) 95 % of control; (dose: 400.0 mg/kg/injection, schedule: Q01DX009 (ip), vehicle: Klucel (hydroxypropylcellulose) (HPC)) 95 % of control; (dose: 400.0 mg/kg/injection, schedule: Q04DX003 (ip), vehicle: Klucel (hydroxypropylcellulose) (HPC)) 112 % of control.

With `Nc1ccccc1CCc1ccccc1N`, the T/C is, setting by setting: under setting [4], 104 % of control; under setting [1], 95 % of control; under setting [5], 100 % of control; under setting [2], 95 % of control; under setting [6], 100 % of control; under setting [3], 108 % of control.

For `CC(=O)[S][Pb]([c]1ccccc1)([c]1ccccc1)[c]1ccccc1`, the T/C was 114 % of control (dose: 4.0 mg/kg/injection, schedule: Q01DX009 (ip), vehicle: Klucel (hydroxypropylcellulose) (HPC)); 110 % of control (dose: 5.9 mg/kg/injection, schedule: Q01DX009 (ip), vehicle: Klucel (hydroxypropylcellulose) (HPC)); 106 % of control (dose: 9.0 mg/kg/injection, schedule: Q01DX009 (ip), vehicle: Klucel (hydroxypropylcellulose) (HPC)).

Turning to `O=C(SCO)c1ccccc1`, the T/C (dose: 100.0 mg/kg/injection, schedule: Q04DX003 (sc), vehicle: olive oil, sesame oil, peanut oil) was 100 % of control; the T/C (dose: 200.0 mg/kg/injection, schedule: Q04DX003 (sc), vehicle: olive oil, sesame oil, peanut oil) was 110 % of control; the T/C (dose: 400.0 mg/kg/injection, schedule: Q04DX003 (sc), vehicle: olive oil, sesame oil, peanut oil) was 100 % of control.

As to `COc1cc2cc(c1Cl)N(C)C(=O)C[C@H](OC(=O)[C@H](C)N(C)C(=O)CC(C)C)[C@]1(C)O[C@H]1[C@H](C)[C@@H]1C[C@@](O)(NC(=O)O1)[C@H](OC)C=C/C=C(\C)C2`, the T/C runs as follows: (dose: 0.1 micrograms/kg/injection, schedule: Q01DX009 (ip), vehicle: saline + alcohol) 120 % of control; (dose: 0.4 micrograms/kg/injection, schedule: Q01DX009 (ip), vehicle: saline + alcohol) 174 % of control; (dose: 0.8 micrograms/kg/injection, schedule: Q01DX009 (ip), vehicle: saline + alcohol) 158 % of control; (dose: 1.6 micrograms/kg/injection, schedule: Q01DX009 (ip), vehicle: saline + alcohol) 154 % of control; (dose: 3.1 micrograms/kg/injection, schedule: Q01DX009 (ip), vehicle: saline + alcohol) 158 % of control and 165 % of control; (dose: 6.2 micrograms/kg/injection, schedule: Q01DX009 (ip), vehicle: saline + alcohol) 154 % of control and 201 % of control. Moreover, the T/C runs as follows: (dose: 12.5 micrograms/kg/injection, schedule: Q01DX009 (ip), vehicle: saline + alcohol) 177 % of control and 187 % of control; (dose: 25.0 micrograms/kg/injection, schedule: Q01DX009 (ip), vehicle: saline + alcohol) 116 % of control.

As for `COC1CC(N=[N+]=[N-])C(O)C(C)O1` (stereo not given), the T/C under setting [1] was 118 % of control and 101 % of control; the T/C under setting [2] is 110 % of control and 101 % of control; the T/C under setting [3] was 118 % of control and 93 % of control; the T/C (dose: 500.0 mg/kg/injection, schedule: Q04DX003 (ip), vehicle: saline with Tween-80) was 109 % of control.

`CC1(C)CC(=O)C2=C(C1)OC1=C(C(=O)CC(C)(C)C1)C2c1cccc([N+](=O)[O-])c1`: the T/C reads like this: under setting [7], 104 % of control; under setting [4], 123 % of control; under setting [5], 106 % of control.

As for `CCCC(C)(C)SSC(C)(C)CCC`, the T/C (dose: 25.0 mg/kg/injection, schedule: Q01DX009 (ip), vehicle: saline with Tween-80) is 90 % of control; the T/C under setting [7] was 90 % of control and 100 % of control; the T/C under setting [4] was 95 % of control and 118 % of control; the T/C under setting [1] was 90 % of control; the T/C under setting [2] is 113 % of control.

With `CC([NH-])C(=O)O.O=C(O)CN(CC(=O)O)CC(=O)O.[Co+2]`, the T/C reads like this: (dose: 50.0 mg/kg/injection, schedule: Q01DX009 (ip), vehicle: saline) 110 % of control and 113 % of control; (dose: 66.0 mg/kg/injection, schedule: Q01DX009 (ip), vehicle: saline) 114 % of control; (dose: 100.0 mg/kg/injection, schedule: Q04DX003 (ip), vehicle: saline) 87 % of control; (dose: 150.0 mg/kg/injection, schedule: Q01DX009 (ip), vehicle: saline) 104 % of control; (dose: 200.0 mg/kg/injection, schedule: Q01DX009 (ip), vehicle: saline) 104 % of control; (dose: 200.0 mg/kg/injection, schedule: Q04DX003 (ip), vehicle: saline) 104 % of control. Besides, where the note is “dose: 400.0 mg/kg/injection, schedule: Q04DX003 (ip), vehicle: saline”, the T/C was 91 % of control.

On to `CCCN(CCC)CC(O)c1cc2c(Cl)cc(Cl)cc2c2cc(C(F)(F)F)ccc12` (stereo not given), for which the T/C is, setting by setting: under setting [7], 100 % of control; under setting [4], 100 % of control; under setting [5], 106 % of control.

Turning to `Cc1ccc(C(=O)O)c(=O)[nH]1`, the T/C by setting is: under setting [7], 98 % of control; under setting [4], 95 % of control; under setting [5], 100 % of control; under setting [6], 94 % of control.

The values are drawn from PubChem BioAssay AID328 (DTP/NCI, 2004).
